10 molecules from ChEMBL document CHEMBL1201862, “PubChem BioAssay data set” (2004) can be followed below.

Assay in all cases: growth of human tumour cells (NCI), 48 h
The test system of assay [1] is 786-0.
Assay [2] concerns ACHN.
The test system of assay [3] is KM12.
Assay [4] has as its system M14.
The subject of assay [5] is NCI-H23.
In assay [6] the test system is NCI-H522.
Assay [7] concerns OVCAR-8.
Assay [8] deals with RXF 393.
The test system of assay [9] is SK-MEL-2.
Assay [10] deals with SK-OV-3.
The subject of assay [11] is SNB-75.
The subject of assay [12] is SNB-78.
In assay [13] the test system is SW-620.
Assay [14] deals with HCC 2998.
The subject of assay [15] is BT-549.
Assay [16] has as its system MCF7.
Assay [17] concerns MDA-MB-435.
In assay [18] the test system is NCI/ADR-RES.
Assay [19] concerns PC-3.
The test system of assay [20] is SR.

Molecules are shown by their SMILES.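 Interpolation was linear, between the two tested concentrations surrounding the appropriate level; five concentrations were tested over 48 hours in 96-well plates. The concentration for 50% growth inhibition is given as GI50.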 Calls of active or inactive are those of the source. Rule as the data show it: active = GI50 up to about 1.1 µM and inactive = higher.

With `c1ccc2c(c1)OCCOCCOc1ccccc1OCCO2`, the GI50 in [1] was 86.9 µM (inactive); in assay [2], 51.9 µM (inactive); in assay [3] it was 35.2 µM (inactive); in [4] it was 44.9 µM (inactive); in [5], > 100 µM (inactive); in assay [6], 32.7 µM (inactive). Also, the GI50 in assay [7] is 78 µM (inactive); in [8], 60.1 µM (inactive); in assay [9], 90.4 µM (inactive); in assay [10], > 100 µM (inactive); in assay [11], 47.1 µM (inactive); in assay [12], > 100 µM (inactive). Moreover, the GI50 in assay [13] was 26.9 µM (inactive).

Turning to `CCN(CC)C(=O)C/C(C)=N/NC(=O)c1ccncc1`, the GI50 in assay [1], in [14], in assay [3], in assay [4], in assay [5] and in assay [6] was > 100 µM (inactive) in each case. In addition, the GI50 in [7], in assay [8], in assay [9], in [10], in assay [11] and in assay [12] was > 100 µM (inactive) throughout. Also, the GI50 in [13] was > 100 µM (inactive).

Take `Cc1c(C(=O)/C=C/c2ccccc2O)c(=O)n(-c2ccccc2)n1C`: the GI50 is 20.4 µM (inactive) in assay [1]; 19 µM (inactive) in assay [2]; 16 µM (inactive) in [14]; > 10 µM (inactive) in [3]; > 10 µM (inactive) in assay [5]; 18.1 µM (inactive) in [6]. In addition, the GI50 in assay [7] is 15.6 µM (inactive); in assay [8], 14.2 µM (inactive); in [9] it was 18 µM (inactive); in assay [10], 36.1 µM (inactive); in assay [11], 50.6 µM (inactive); in assay [12], 39.4 µM (inactive). The GI50 in assay [13] is 15.1 µM (inactive).

As to `Cc1ccc(-c2nc3c(C(=O)NCCN(C)C)cccc3[nH]2)cc1`, the GI50 in assay [1] is 24.4 µM (inactive); in assay [2] it was 10.3 µM (inactive); in assay [14], 14.3 µM (inactive); in assay [3], 20 µM (inactive); in [4], 15.8 µM (inactive); in assay [5] it was 15 µM (inactive). For the same molecule, the GI50 in assay [7] is 15.2 µM (inactive); in assay [8] it was 10.7 µM (inactive); in [9] it was 18.5 µM (inactive); in assay [10] it was 14.5 µM (inactive); in assay [11], 18 µM (inactive); in assay [12], 20.2 µM (inactive). Also, in assay [13], the GI50 was 6.27 µM (inactive).

Consider `COc1ccc2c3c([nH]c2c1[N+](=O)[O-])C(C)N(C)CC3` (stereo unspecified), for which the GI50 was > 100 µM (inactive) in [1]; > 100 µM (inactive) in [2]; > 100 µM (inactive) in [14]; 51.6 µM (inactive) in assay [3]; > 100 µM (inactive) in assay [4]; > 100 µM (inactive) in [5]. In addition, the GI50 in assay [6] was > 100 µM (inactive); in [7], > 100 µM (inactive); in assay [9], > 100 µM (inactive); in assay [10], > 100 µM (inactive); in assay [11], 72.3 µM (inactive); in assay [12] it was > 100 µM (inactive). Besides, the GI50 in assay [13] was 29.6 µM (inactive).

With `O=C(N/C(=C\c1ccc(/C=C(\NC(=O)c2ccccc2)c2nc3cc(Cl)ccc3[nH]2)cc1)c1nc2cc(Cl)ccc2[nH]1)c1ccccc1`, the GI50 in assay [1] is 25.6 µM (inactive); in assay [2], 26.9 µM (inactive); in [3], 14 µM (inactive); in [4], 26.9 µM (inactive); in assay [5], 27.7 µM (inactive); in assay [6] it was 13.6 µM (inactive). The GI50 was 27.7 µM (inactive) in assay [7]; 13.4 µM (inactive) in [8]; 36.7 µM (inactive) in assay [9]; > 100 µM (inactive) in assay [10]; 24.4 µM (inactive) in [11]; > 100 µM (inactive) in assay [12]. The GI50 in assay [13] is 55 µM (inactive).

For `O=C(CO)C1CC2C=CC1C2` (stereo unspecified), the GI50 in assay [1], in [2], in assay [3], in [4], in [5] and in assay [6] was > 100 µM (inactive) throughout. Besides, the GI50 in [7], in assay [8], in assay [9], in assay [10], in assay [11] and in assay [12] was > 100 µM (inactive) in each case. Besides, the GI50 in [13] was > 100 µM (inactive).

As for `S=C(Nc1ccccc1)Nc1ccccc1SC(/C=C/NNC1=NN=C(c2ccccc2)C(c2ccccc2)N1)c1ccccc1` (stereo unspecified), the GI50 in assay [1] was 81.5 µM (inactive); in [2], 69.7 µM (inactive); in assay [14], 26.4 µM (inactive); in assay [3] it was > 100 µM (inactive); in assay [4] it was > 100 µM (inactive); in assay [6], 8.85 µM (inactive). Further, the GI50 was > 100 µM (inactive) in assay [7]; 8.02 µM (inactive) in assay [8]; > 100 µM (inactive) in assay [9]; > 100 µM (inactive) in assay [10]; > 100 µM (inactive) in assay [12]; > 100 µM (inactive) in assay [13].

On to `CN1c2ccccc2C2c3c(O)ccc(O)c3C=C([N+](=O)[O-])C21` (stereo unspecified), for which the GI50 is 0.519 µM (active) in assay [1]; 0.679 µM (active) in assay [2]; 5.36 µM (inactive) in [15]; 0.716 µM (active) in assay [14]; 0.39 µM (active) in [3]; 0.513 µM (active) in [4]. For the same molecule, the GI50 is 0.155 µM (active) in assay [16]; 0.199 µM (active) in assay [17]; 1.69 µM (inactive) in assay [5]; 0.0621 µM (active) in assay [6]; 1.04 µM (active) in [18]; 0.286 µM (active) in [7]. In addition, the GI50 in assay [19] was 0.388 µM (active); in [8], 3.91 µM (inactive); in [9], 1.98 µM (inactive); in assay [10], 3.72 µM (inactive); in [11], 4.7 µM (inactive); in assay [20] it was 0.569 µM (active). In addition, the GI50 in [13] is 0.406 µM (active).

As to `O=C(CCc1cc(O)cc(O)c1)NCCc1cc(O)cc(O)c1`, the GI50 in assay [1], in [2], in [15], in [14], in assay [3] and in [4] was > 100 µM (inactive) each time. The GI50 in [16], in assay [17], in assay [5], in assay [6], in assay [18] and in assay [7] was > 100 µM (inactive) each time. Moreover, the GI50 in [19], in assay [8], in assay [9], in assay [10], in [11] and in assay [20] was > 100 µM (inactive) in each case. In addition, the GI50 in [13] was > 100 µM (inactive).
